Assay [1] in a line: cells. It is filed as functional, cell-based.
The nature of assay [2]: cells. It is filed as functional, cell-based. The source holds these as a separate data set.
In another assay the target is Genome polyprotein (dengue virus type 2, UniProt P29990). The experiment in a line: flavivirus cap methylation enzyme inhibition – biochemical, confirmation dose response, primary screen (AID 588689). It is filed as functional.
Assay [3] concerns BJ. The experiment in a line: cells. It is filed as functional, cell-based. As to conditions: Homo sapiens.
A further assay addresses Paired box protein Pax-8 (Homo sapiens, UniProt Q06710). The assay can be described thus: PAX8 transcriptional activity inhibition in RMG-I – RMG-I cells, luciferase, cherry-pick, dose response (AID 687027).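 Note: luciferase reporter driven by Pax8 target thyroperoxidase promoter measured by SteadyGlo luminescence.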 It is filed as functional, cell-based.
The subject of assay [4] is BJ. The assay can be described thus: BJ-TERT fibroblast viability loss – cell-based, RAS-independent, luminescence, dose response (AID 1933). It is filed as functional. As to conditions: Homo sapiens.
Assay [5] in a line: DRD fibroblast viability loss – cell-based, non-viral oncogenic, luminescence, dose response (AID 1934). As to conditions: Homo sapiens. It counts as functional.
The next assay concerns the target Large T antigen (Simian virus 40, UniProt P03070). It is filed as functional, Betapolyomavirus macacae.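 Note: Confirmatory-stage PubChem screen for compounds that inhibit SV40 T antigen.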
Assay [6] can be described thus: Luminescence Cell-Based Dose Confirmation HTS to Identify Inhibitors of Platelet Dense Granule Release. [Related pubchem assays: 1663 (Primary HTS), 1678 (Summary of Project)]. It is filed as functional.
In assay [7] the target is Luciferin 4-monooxygenase (Photinus pyralis, UniProt P08659). The assay can be described thus: inhibition of purified Photinus pyralis luciferase – biochemical, luminescence, dose response (AID 1891).
Assay [8] can be described thus: viability of PTEN-deleted HCT116 cells – cell-based, HCT116 PTEN knockout, dose response (AID 1047).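 Note: HCT116 colon tumor cells with PTEN knocked out; cells exposed to compound for 60 hours before readout; potency for loss of cell viability measured by luminescence.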 It is filed as functional.
The nature of assay [9]: viability of HCT116 lacking mutant beta-catenin – cell-based, human colon tumor, dose response (AID 1045).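 Note: HCT116 colon tumor cells with beta catenin knocked out; cells exposed to compound for 60 hours.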 It is filed as functional.
Assay [10] has as its target Glyceraldehyde-3-phosphate dehydrogenase (Homo sapiens, UniProt P04406).
A short description of assay [11]: luciferase reporter signal suppression in cells – H4 neuroglioma cells, luminescence, dose response (AID 1990). It counts as functional, cell-based. In general terms: In a reporter assay the amount or activity of a reporter protein is the signal.
Assay [12] deals with T1, Ubiquitin-conjugating enzyme E2 N (Homo sapiens, UniProt P61088).
T1 sequence (P61088 whole entry): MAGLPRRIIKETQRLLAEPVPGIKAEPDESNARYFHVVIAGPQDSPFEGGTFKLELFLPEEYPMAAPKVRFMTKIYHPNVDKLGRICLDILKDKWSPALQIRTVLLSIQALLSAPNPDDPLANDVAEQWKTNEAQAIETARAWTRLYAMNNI
It counts as functional.

The nature of assay [13]: viability of uninfected HEp-2 cells – cell-based, HTS, cytotoxicity control for RSV inhibitor project, dose response (AID 2410). It counts as functional. Conditions: human respiratory syncytial virus.
The nature of assay [14]: Luminescence Cell-Based Dose Response HTS to Identify Inhibitors of 5'UTR Stem-Loop Driven Prion Protein mRNA Translation in H4 Neuroglioblastoma Cells. [Related pubchem assays: 1827 (Project Summary), 1813 (Primary HTS)]. It counts as functional.
Assay [15] can be described thus: alpha-synuclein stem-loop luciferase translation blockers – H4 neuroglioma cells, luminescence, confirmation (AID 1988). It is filed as functional, cell-based.
The next assay deals with Cytochrome P450 3A4 (Homo sapiens, UniProt P08684).
Assay [16] has as its target T2, Rac GTPase-activating protein 1 (Homo sapiens, UniProt Q9H0H5).
T2 sequence (Q9H0H5 whole entry): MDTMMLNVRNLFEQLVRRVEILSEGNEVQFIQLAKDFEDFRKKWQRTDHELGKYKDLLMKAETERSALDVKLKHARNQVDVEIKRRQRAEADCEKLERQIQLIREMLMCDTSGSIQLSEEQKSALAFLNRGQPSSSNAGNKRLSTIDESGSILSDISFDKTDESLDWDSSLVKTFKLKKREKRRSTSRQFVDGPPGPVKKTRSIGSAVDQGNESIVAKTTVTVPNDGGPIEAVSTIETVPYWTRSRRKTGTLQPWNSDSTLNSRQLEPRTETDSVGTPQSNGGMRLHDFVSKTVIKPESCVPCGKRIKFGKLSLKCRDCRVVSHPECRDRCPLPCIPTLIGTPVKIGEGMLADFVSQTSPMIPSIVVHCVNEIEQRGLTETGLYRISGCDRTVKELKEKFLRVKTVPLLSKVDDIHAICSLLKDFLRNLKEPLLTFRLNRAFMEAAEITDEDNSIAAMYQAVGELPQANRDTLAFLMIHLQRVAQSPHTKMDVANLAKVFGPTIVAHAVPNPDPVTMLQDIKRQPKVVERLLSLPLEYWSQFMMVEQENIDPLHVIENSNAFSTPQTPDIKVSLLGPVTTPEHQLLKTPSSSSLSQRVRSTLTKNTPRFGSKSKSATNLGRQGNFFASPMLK
The experiment in a line: blockers of MgcRacGAP-driven Rac1 GTP hydrolysis – biochemical, ADP Hunter fluorescence, primary and confirmatory, confirmation (AID 624330). It is filed as functional.

For assay [17], the system named is Streptococcus sp. 'group A'. The assay can be described thus: Streptococcus pyogenes SK(-)GAS viability under kanamycin – luminescence, BacTiterGlo, confirmation, counter-screen for streptokinase expression inhibitor project, dose response (AID 1900). It is filed as functional, organism-based. Background: A counterscreen serves to expose hits that act by an unwanted route or on another target.

The next assay concerns Streptococcus. The experiment in a line: GAS UMAA2166 growth inhibition – luminescence, BacTiterGlo, counter-screen for streptokinase expression inhibitor project, dose response (AID 1915).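 Note: potency for reduction of bacterial viability or growth.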 It is filed as functional, organism-based.
In another assay the target is T3, Streptokinase A (Streptococcus pyogenes serotype M1, UniProt P10520).
T3 sequence (P10520 whole entry): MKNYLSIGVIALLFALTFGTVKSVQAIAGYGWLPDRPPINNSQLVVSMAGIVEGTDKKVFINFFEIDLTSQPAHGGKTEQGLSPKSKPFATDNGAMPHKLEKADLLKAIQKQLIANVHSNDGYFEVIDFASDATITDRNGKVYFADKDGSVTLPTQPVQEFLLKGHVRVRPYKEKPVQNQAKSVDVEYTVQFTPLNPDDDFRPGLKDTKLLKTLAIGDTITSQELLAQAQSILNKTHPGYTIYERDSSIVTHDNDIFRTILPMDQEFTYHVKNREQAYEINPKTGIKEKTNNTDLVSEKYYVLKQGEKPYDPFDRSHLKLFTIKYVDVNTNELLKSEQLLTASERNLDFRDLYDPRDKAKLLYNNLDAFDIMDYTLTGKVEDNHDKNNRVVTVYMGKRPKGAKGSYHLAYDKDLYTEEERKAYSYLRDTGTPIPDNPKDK
The experiment in a line: viability-normalized secreted streptokinase activity reduction – plasminogen activation absorbance, OD405, dose response (AID 1914).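 Note: secreted streptokinase activity via plasminogen activation per viability signal from cell pellet.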 It counts as functional, Streptococcus pyogenes M1 GAS.

Assay [18] can be described thus: reduction of Shn3 3'UTR-driven luciferase in osteoblasts – cell-based, Clone20 osteoblasts, firefly luciferase, cherry-picked, dose response (AID 624132).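 Note: firefly luciferase luminescence from reporter carrying the Shn3 3'UTR in osteoblasts.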 It counts as functional.
The nature of assay [19]: non-specific 3'UTR reporter inhibition in Clone20-Shn3RL – cell-based, Renilla luciferase, cherry-picked, counter-screen for Shn3 inhibitor project, dose response (AID 624133). It counts as functional.
Assay [20] in a line: loss of viability in HepG2 cells – cell-based, CellTiter-Glo, cherry-picked, cytotoxicity control for Shn3 inhibitor project, dose response (AID 624134). It counts as functional.
Assay [21] has as its target FAD-linked sulfhydryl oxidase ALR (Homo sapiens, UniProt P55789). The experiment in a line: ALR-catalysed DTT oxidation blockers – biochemical, H2O2 detection, luminescence, cherry-pick, dose response (AID 493248).

We go through 26 compounds from ChEMBL document CHEMBL1201862, “PubChem BioAssay data set” (2004).

Active and inactive are the calls of the source.

Sequence of Glyceraldehyde-3-phosphate dehydrogenase (P04406 whole entry): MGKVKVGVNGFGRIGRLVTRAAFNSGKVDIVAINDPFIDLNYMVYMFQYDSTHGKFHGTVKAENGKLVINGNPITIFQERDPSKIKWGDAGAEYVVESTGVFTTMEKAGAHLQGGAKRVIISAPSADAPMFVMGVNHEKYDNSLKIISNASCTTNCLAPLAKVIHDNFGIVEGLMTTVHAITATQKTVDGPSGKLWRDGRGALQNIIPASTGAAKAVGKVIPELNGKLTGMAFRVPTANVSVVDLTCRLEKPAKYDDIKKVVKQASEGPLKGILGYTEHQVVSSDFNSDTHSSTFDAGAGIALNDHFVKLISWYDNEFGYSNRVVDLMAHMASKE
Sequence of Large T antigen (P03070 whole entry): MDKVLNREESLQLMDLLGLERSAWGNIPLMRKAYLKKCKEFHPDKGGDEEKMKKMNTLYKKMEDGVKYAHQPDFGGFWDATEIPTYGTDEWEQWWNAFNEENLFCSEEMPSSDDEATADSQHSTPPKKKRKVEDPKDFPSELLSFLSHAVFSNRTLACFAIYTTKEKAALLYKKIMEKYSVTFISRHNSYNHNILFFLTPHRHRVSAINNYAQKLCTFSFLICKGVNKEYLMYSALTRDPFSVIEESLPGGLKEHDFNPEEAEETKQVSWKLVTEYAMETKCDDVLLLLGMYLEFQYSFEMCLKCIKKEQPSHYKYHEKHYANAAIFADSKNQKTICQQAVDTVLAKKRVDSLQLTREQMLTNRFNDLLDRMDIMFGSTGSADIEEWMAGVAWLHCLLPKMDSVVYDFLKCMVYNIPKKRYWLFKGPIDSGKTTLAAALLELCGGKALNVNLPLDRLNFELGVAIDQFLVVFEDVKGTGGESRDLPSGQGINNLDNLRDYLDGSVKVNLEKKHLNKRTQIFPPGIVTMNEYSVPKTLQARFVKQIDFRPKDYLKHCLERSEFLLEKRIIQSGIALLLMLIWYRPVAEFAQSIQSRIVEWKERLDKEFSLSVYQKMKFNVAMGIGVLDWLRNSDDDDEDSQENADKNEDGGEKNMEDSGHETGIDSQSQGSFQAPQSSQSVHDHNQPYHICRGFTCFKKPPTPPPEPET
Sequence of Genome polyprotein (P29990 2492-3391 limits assumed): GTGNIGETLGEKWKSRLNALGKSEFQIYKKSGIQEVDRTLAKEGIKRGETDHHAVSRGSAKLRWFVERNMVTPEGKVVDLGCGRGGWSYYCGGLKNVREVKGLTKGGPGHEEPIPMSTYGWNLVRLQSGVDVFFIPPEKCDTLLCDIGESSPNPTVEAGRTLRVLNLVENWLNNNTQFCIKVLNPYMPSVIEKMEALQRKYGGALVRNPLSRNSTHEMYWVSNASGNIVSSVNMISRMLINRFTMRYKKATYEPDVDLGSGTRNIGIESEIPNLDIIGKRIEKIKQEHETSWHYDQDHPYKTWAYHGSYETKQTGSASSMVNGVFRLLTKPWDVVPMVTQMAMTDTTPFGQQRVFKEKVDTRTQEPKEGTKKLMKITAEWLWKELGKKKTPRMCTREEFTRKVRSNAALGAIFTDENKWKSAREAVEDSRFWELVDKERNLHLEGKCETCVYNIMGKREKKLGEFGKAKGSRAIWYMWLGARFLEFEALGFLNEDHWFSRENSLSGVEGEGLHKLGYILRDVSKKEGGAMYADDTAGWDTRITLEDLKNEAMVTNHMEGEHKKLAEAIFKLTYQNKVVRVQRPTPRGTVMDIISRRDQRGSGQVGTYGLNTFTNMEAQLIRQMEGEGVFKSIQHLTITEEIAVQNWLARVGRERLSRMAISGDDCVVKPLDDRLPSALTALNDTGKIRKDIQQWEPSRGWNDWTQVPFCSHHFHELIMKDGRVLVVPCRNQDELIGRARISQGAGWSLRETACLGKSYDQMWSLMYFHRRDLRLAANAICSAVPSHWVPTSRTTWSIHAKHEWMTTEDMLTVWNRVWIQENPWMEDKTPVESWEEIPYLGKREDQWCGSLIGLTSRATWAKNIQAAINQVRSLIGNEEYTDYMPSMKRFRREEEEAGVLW
Sequence of FAD-linked sulfhydryl oxidase ALR (P55789 whole entry): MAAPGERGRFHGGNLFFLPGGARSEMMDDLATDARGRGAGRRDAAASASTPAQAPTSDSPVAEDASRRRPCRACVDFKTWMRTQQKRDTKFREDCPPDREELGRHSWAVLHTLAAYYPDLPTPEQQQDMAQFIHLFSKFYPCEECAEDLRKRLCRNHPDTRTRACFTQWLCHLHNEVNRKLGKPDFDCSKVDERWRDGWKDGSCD
Sequence of Cytochrome P450 3A4 (P08684 whole entry): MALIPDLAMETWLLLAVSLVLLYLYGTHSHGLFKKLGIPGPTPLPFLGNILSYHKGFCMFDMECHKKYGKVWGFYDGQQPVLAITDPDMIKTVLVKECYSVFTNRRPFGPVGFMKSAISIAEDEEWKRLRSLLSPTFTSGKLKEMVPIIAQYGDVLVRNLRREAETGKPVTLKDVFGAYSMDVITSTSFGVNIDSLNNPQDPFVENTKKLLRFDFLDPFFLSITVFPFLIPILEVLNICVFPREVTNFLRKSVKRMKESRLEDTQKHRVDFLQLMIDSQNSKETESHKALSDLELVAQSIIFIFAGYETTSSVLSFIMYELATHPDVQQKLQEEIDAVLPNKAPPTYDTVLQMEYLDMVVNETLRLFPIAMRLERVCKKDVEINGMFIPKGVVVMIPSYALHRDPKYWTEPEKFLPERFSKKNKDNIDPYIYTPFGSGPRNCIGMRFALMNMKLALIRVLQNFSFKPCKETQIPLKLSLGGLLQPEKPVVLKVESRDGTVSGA
Sequence of Luciferin 4-monooxygenase (P08659 whole entry): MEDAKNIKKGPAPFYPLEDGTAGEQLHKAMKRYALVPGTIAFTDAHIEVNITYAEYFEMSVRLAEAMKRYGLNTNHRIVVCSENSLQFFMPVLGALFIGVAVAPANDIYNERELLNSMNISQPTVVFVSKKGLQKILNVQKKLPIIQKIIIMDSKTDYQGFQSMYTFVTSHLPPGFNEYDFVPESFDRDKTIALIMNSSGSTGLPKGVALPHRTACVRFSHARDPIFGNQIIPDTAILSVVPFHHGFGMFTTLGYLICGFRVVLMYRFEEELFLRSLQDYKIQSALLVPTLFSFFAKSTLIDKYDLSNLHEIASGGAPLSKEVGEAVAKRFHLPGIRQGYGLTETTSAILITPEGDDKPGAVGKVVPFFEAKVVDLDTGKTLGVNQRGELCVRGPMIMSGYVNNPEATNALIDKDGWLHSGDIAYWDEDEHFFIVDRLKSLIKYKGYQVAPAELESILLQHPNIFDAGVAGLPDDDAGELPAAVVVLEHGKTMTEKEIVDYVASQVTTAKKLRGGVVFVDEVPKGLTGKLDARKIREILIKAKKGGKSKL
Sequence of Paired box protein Pax-8 (Q06710 whole entry): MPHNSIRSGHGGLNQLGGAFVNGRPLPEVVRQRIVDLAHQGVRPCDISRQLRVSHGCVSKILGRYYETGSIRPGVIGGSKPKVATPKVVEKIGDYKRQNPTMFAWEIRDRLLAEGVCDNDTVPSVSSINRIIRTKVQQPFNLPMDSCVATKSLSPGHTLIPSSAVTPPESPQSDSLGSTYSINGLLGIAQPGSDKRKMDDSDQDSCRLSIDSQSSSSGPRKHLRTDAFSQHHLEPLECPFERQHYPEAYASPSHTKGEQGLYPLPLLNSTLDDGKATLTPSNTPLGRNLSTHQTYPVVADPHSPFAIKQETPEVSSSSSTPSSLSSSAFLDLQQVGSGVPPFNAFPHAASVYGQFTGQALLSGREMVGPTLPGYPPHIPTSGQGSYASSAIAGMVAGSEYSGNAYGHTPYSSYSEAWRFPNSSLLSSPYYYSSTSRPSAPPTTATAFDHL

With `CC(C)NC(=O)NC(=O)CSc1nnc(-c2ccccc2F)n1N`, the concentration giving a half-maximal response (EC50) in the assay “cells [1]” and in “cells [2]” was > 350 µM (not active) throughout.
As to `COc1cccc(/C=C2\SC(=S)N(C(Cc3ccccc3)C(=O)O)C2=O)c1` (stereo unspecified), the IC50 on Genome polyprotein was 44.4 µM (active).
Consider `COc1ccc(C(=O)NN(C)c2nc(C(F)(F)F)nc3ccccc23)cc1`, for which the concentration giving a half-maximal response (EC50) is 450 nM (active) in the assay on BJ [3], < 120 nM (active) in the assay on BJ [4] and < 120 nM (active) in assay [5]. Further, the concentration at half-maximal activity (AC50) at Paired box protein Pax-8 is 1.79 µM (active).
Take `O=C1CCCN1CCCNC(=S)Nc1ccc(Nc2ccccc2)cc1`: the IC50 on Large T antigen is 18.7 µM (active).
With `CCN(CC)c1ccc(NC(=O)COC(=O)c2ccc3ccccc3n2)cc1`, the IC50 at Large T antigen was 48.2 µM (active).
Take `CCOC(=O)C1=C(C)N=C(C)/C(=C(/O)OCC)C1C(=O)OCC(=O)N(C)C1CCS(=O)(=O)C1` (stereo unspecified): the EC50 in the assay “cells [1]” and in “cells [2]” was > 350 µM (not active) each time.
`Cc1ccc(N(C)S(=O)(=O)c2ccc(-c3cc(C)no3)s2)cc1`: the EC50 in “cells [1]” and in “cells [2]” was > 350 µM (not active) throughout.
With `CC(C)C1Cc2c(sc3c2c(=O)n(-c2ccccc2)c2n[nH]c(=S)n32)CO1` (stereo unspecified), the IC50 at Large T antigen was 29.5 µM (active).
For the compound `Cc1cccc(C(=N)NOC(=O)c2ccoc2C)c1`, the concentration for a half-maximal effect (EC50) in [6] was 3.25 µM (active); in “cells [1]” it was > 350 µM (not active); in assay [7], 3.65 µM (active); in the assay “cells [2]”, 7.1 µM (active).
For the compound `O=C(NC1CCCCC1)C(c1ccccc1F)N(Cc1ccco1)C(=O)Cn1nnc2ccccc21` (stereo unspecified), the EC50 in [8] and in assay [9] was 16 µM (active) each time.
`COc1cc(/C=C2\C(=N)N3N=C(CC(=O)N4CCCCC4)SC3=NC2=O)ccc1O`: the half-maximal inhibitory concentration (IC50) at Large T antigen is 22.5 µM (active).
Same read-out and setting: the value for `CCOc1ccc(NCc2cccn2-c2nnc(N3CCC(C(=O)NCCCN4CCCCC4CC)CC3)s2)cc1` (stereo unspecified) was 11.7 µM (active).
As to `O=C(O)Cc1csc(COc2ccccc2)n1`, in [10], the half-maximal inhibitory concentration (IC50) is > 100 µM (not active).
As for `CCN1CCN(C2=C(Cl)C(=O)N(c3cccc(OC)c3)C2=O)CC1`, in assay [10], the 50% inhibitory concentration (IC50) is > 50 µM (inconclusive).
`Cc1ccc(-c2nn(-c3ccccc3)cc2CSC(=N)N)cc1`: the EC50 in [8] was 17.1 µM (active); in assay [11], > 120 µM (not active); in assay [9] it was 17.4 µM (active); in [14], > 120 µM (not active); in [15], > 120 µM (not active). Moreover, in assay [12], the IC50 is > 20 µM (inactive). Moreover, the half-maximal cytotoxic concentration (CC50) in assay [13] is 14.9 µM (active). For the same compound, the half-maximal activity concentration (AC50) at Cytochrome P450 3A4 was 39.8 µM (inconclusive).
In the case of `O=C(CN1CCCCC1)N1CCCc2ccccc21`, the concentration giving a half-maximal response (EC50) in the assay “cells [1]” and in “cells [2]” was > 350 µM (not active) each time.
On to `COc1cc(/C=C2\SC(Nc3ccc(Cl)c(C(=O)O)c3)=NC2=O)c(Br)c(Br)c1O`, for which the IC50 was 3.27 µM (active) at Large T antigen and 13.9 µM (active) in [16].
For `COc1ccc(C(CC(=O)O)C(N)=O)cc1` (stereo unspecified), in assay [10], the IC50 is listed as > 100 µM (not active).
`COc1ccccc1/C=C1/C(=O)ON=C1C`: on Genome polyprotein, the IC50 is > 100 µM (active).
For `Cc1cc(C(C2C(=O)CC(C)(C)CC2=O)C2C(=O)CC(C)(C)CC2=O)cc(C)c1OC(F)F`, the concentration for half-maximal inhibition (IC50) at Genome polyprotein was 43.5 µM (active).
For `CC(=O)Nc1nc2ccccc2n1CCOc1ccccc1`, the 50% effective concentration (EC50) was 15.4 µM (active) in assay [8]; 11.3 µM (active) in [17]; > 150 µM (not active) in the assay on Streptococcus; 12.7 µM (active) in assay [9]; > 150 µM (not active) at Streptokinase A.
Take `c1csc(CCNc2ncnc3sc4c(c23)CCC4)c1`: the results for the half-maximal effective concentration (EC50) in [8] and in assay [9] were 63.9 µM (active) and 72.7 µM (active), respectively. The AC50 in assay [18] is 1.7 µM (active); in [19], 988 nM (active); in assay [20], 7.76 µM (active).
As to `COc1cc(/C=N/NC(=O)c2cccc(S(=O)(=O)N3CCCC3)c2)ccc1O`, the concentration at half-maximal activity (AC50) in assay [21] is 1.79 µM (active). Besides, the 50% inhibitory concentration (IC50) on Large T antigen was 9.24 µM (active).
With `CC/N=c1\scc(C)n1/N=C/c1cc(Br)c(O)c(Br)c1`, in [13], the cytotoxic concentration (CC50) was 13.3 µM (active). The IC50 at Large T antigen is 21.6 µM (active).
In the case of `Cc1n[nH]c(O)c1C(c1ccc(-c2ccc(Cl)c(C(=O)O)c2)o1)c1c(O)n[nH]c1C`, the IC50 on Genome polyprotein is > 100 µM (active).
With `COc1cc(/C=N/NC(=O)c2cc(C3CC3)[nH]n2)ccc1O`, the AC50 in assay [21] is 1.74 µM (active). The IC50 at Large T antigen was 7.28 µM (active).

For orientation: EC50 means the midpoint of the concentration-response curve. For orientation: IC50 means the concentration that gives 50% inhibition. The AC50 is the concentration giving half of the maximal activity seen. What is called CC50 is the concentration giving 50% cytotoxicity.
